# Laboratory results as given in patent US20230023092A1, “TREATMENT OF DEPRESSION AND OTHER VARIOUS DISORDERS WITH PSILOCYBIN” (COMPASS […], priority 2019, published 2023).
# Tested on: healthy subjects
# Test: Life Changes Inventory (LCI)
# Format: in vivo, human
# Text: In some embodiments, the Life Changes Inventory (LCI) questionnaire is utilized to evaluate the safety and/or efficacy of psilocybin. The LCI is designed as a questionnaire to investigate those variables present in the day-to-day experience of adults that might relate either to stability or decline of intellectual ability.
# The following list of outcome measures are non-exhaustive. • a. The short-term change from Baseline (Day −1 [Visit 2]) to Day 7 (Visit 5) in cognitive measures of attention, spatial and working memory and executive function was measured by a composite score of the CANTAB Panel (Spatial Working Memory [SWM], Rapid Visual Information Processing [RVP], Paired Associates Learning [PAL]). • b. The short-term change from Baseline (Day −1 [Visit 2]) to Day 7 (Visit 5) in Social Cognition Panel scales (Pictorial Empathy Test [PET], Reading the Mind in the Eyes Test [RMET], Toronto Empathy Questionnaire [TEQ], Social Value Orientation [SVO], Scale of Social Responsibility [SSR]). • c. The change from Baseline (Day −1 [Visit 2]) to Day 28 (Visit 6) in cognitive measures of attention, spatial and working memory and executive function as measured by a composite score of the CANTAB Panel (SWM, RVP, PAL). • d. The long-term change from Baseline (Day −1 [Visit 2]) to Day 84 (Visit 7) in Social Cognition Panel scales (PET, RMET, TEQ, SVO, SSR). • e. Dose-related differences between cognitive effects of psilocybin at Baseline (Day −1 [Visit 2]), Day 7 (Visit 5) and Day 28 (Visit 6), as measured by a composite score of the CANTAB Panel (SWM, RVP, PAL). • f. Dose-related differences between psychological effects of psilocybin at Baseline (Day −1 [Visit 2]), Day 7 (Visit 5) and Day 84 (Visit 7), as measured by Social Cognition Panel scales (PET, RMET, TEQ, SVO, SSR). • g. Differences in cognitive effects of psilocybin between psilocybin-naïve and experienced subjects at Baseline (Day −1 [Visit 2]), Day 7 (Visit 5) and Day 28 (Visit 6), as measured by a composite score of the CANTAB Panel (SWM, RVP, PAL). • h. Differences in Positive and Negative Affect Schedule (PANAS) after study drug administration on Day 0 (Visit 3). • i. Differences between psilocybin and placebo in the Emotion Recognition Test (ERT), Intra-Extra Dimensional Set Shift (IED), One Touch Stockings (OTS), Verbal Fluency and Digit Span Forward at Day 7 (Visit 5). • j. A composite score of the CANTAB Panel, including the following tests: • i. Spatial Working Memory (SWM) (performed at Visit 2, Visit 5, and Visit 6). • ii. Rapid Visual Information Processing (RVP) (performed at Visit 2, Visit 5, and Visit 6). • iii. Paired Associates Learning (PAL) (performed at Visit 2, Visit 5, and Visit 6). • k. Cognitive Flexibility Panel • i. Emotion Recognition Task (ERT) (performed at Visit 5). • ii. Intra-Extra Dimensional Set Shift (IED) (performed at Visit 5). • iii. One Touch Stockings (OTS) (performed at Visit 5). • iv. Verbal Fluency (performed at Visit 5). • v. Digit Span Forward (performed at Visit 5). • l. Five Dimension Altered States of Consciousness questionnaire (5D-ASC) (performed at Visit 3). • m. PANAS (performed at Visit 2 and Visit 3). • n. NEO-Five Factor Inventory (NEO-FFI) (performed at Visit 2, Visit 5, and Visit 7). • o. Symptom Checklist-90 item (SCL-90) (performed at Visit 2, Visit 5, and Visit 7). • p. Life Changes Inventory (LCI): The LCI measures changes in attitudes and values after near-death experiences often used to evaluate personal transformation following spiritually oriented experiences and practices. (performed at Visit 5 and Visit 7). • q. Social Cognition Panel scales • i. Pictorial Empathy Test (PET) (performed at Visit 2, Visit 5, and Visit 7). • ii. Reading the Mind in the Eyes Test (RMET) (performed at Visit 2, Visit 5, and Visit 7). • iii. Social Value Orientation (SVO) (performed at Visit 2, Visit 5, and Visit 7). • iv. Toronto Empathy Questionnaire (TEQ) (performed at Visit 2, Visit 5, and Visit 7). • v. […]
smiles,measurement,setting,value
"CN(C)CCc1c[nH]c2cccc(OP(=O)(O)O)c12 [Psilocybin, psilocybin]","LCI appreciation for life, LS mean difference Psilocybin 10 mg-Placebo",Day 7,0.6
same,"LCI appreciation for life, LS mean difference Psilocybin 25 mg-Placebo",Day 7,0.5
same,"LCI appreciation for life, LS mean difference Psilocybin (25 mg-10 mg)",Day 7,−0.2
same,"LCI appreciation of death, LS mean difference Psilocybin 10 mg-Placebo",Day 7,0.1
same,"LCI appreciation of death, LS mean difference Psilocybin 25 mg-Placebo",Day 7,0.1
same,"LCI appreciation of death, LS mean difference Psilocybin (25 mg-10 mg)",Day 7,−0.0
same,"LCI concern for others, LS mean difference Psilocybin 10 mg-Placebo",Day 7,0.4
same,"LCI concern for others, LS mean difference Psilocybin 25 mg-Placebo",Day 7,0.4
same,"LCI concern for others, LS mean difference Psilocybin (25 mg-10 mg)",Day 7,0.0
same,"LCI concern for worldly achievement, LS mean difference Psilocybin 10 mg-Placebo",Day 7,−0.2
same,"LCI concern for worldly achievement, LS mean difference Psilocybin 25 mg-Placebo",Day 7,−0.1
same,"LCI concern for worldly achievement, LS mean difference Psilocybin (25 mg-10 mg)",Day 7,0.1
same,"LCI concern social, LS mean difference Psilocybin 10 mg-Placebo",Day 7,0.1
same,"LCI concern social, LS mean difference Psilocybin 25 mg-Placebo",Day 7,0.2
same,"LCI concern social, LS mean difference Psilocybin (25 mg-10 mg)",Day 7,0.1
same,"LCI quest for meaning, LS mean difference Psilocybin 10 mg-Placebo",Day 7,0.4
same,"LCI quest for meaning, LS mean difference Psilocybin 25 mg-Placebo",Day 7,0.4
same,"LCI quest for meaning, LS mean difference Psilocybin (25 mg-10 mg)",Day 7,0.0
same,"LCI religiousness, LS mean difference Psilocybin 10 mg-Placebo",Day 7,−0.1
same,"LCI religiousness, LS mean difference Psilocybin 25 mg-Placebo",Day 7,0.0
same,"LCI religiousness, LS mean difference Psilocybin (25 mg-10 mg)",Day 7,0.1
same,"LCI self-acceptance, LS mean difference Psilocybin 10 mg-Placebo",Day 7,0.7
same,"LCI self-acceptance, LS mean difference Psilocybin 25 mg-Placebo",Day 7,0.5
same,"LCI self-acceptance, LS mean difference Psilocybin (25 mg-10 mg)",Day 7,−0.1
same,"LCI spirituality, LS mean difference Psilocybin 10 mg-Placebo",Day 7,0.3
same,"LCI spirituality, LS mean difference Psilocybin 25 mg-Placebo",Day 7,0.2
same,"LCI spirituality, LS mean difference Psilocybin (25 mg-10 mg)",Day 7,−0.1
same,"LCI-absolute change, LS mean difference Psilocybin 10 mg-Placebo",Day 7,0.4
same,"LCI-absolute change, LS mean difference Psilocybin 25 mg-Placebo",Day 7,0.3
same,"LCI-absolute change, LS mean difference Psilocybin (25 mg-10 mg)",Day 7,−0.1
same,"LCI appreciation for life, LS mean difference Psilocybin 10 mg-Placebo",Day 84,0.6
same,"LCI appreciation for life, LS mean difference Psilocybin 25 mg-Placebo",Day 84,0.5
same,"LCI appreciation for life, LS mean difference Psilocybin (25 mg-10 mg)",Day 84,−0.1
same,"LCI appreciation of death, LS mean difference Psilocybin 10 mg-Placebo",Day 84,0.2
same,"LCI appreciation of death, LS mean difference Psilocybin 25 mg-Placebo",Day 84,0.2
same,"LCI appreciation of death, LS mean difference Psilocybin (25 mg-10 mg)",Day 84,0.0
same,"LCI concern for others, LS mean difference Psilocybin 10 mg-Placebo",Day 84,0.4
same,"LCI concern for others, LS mean difference Psilocybin 25 mg-Placebo",Day 84,0.5
same,"LCI concern for others, LS mean difference Psilocybin (25 mg-10 mg)",Day 84,0.1
same,"LCI concern for worldly achievement, LS mean difference Psilocybin 10 mg-Placebo",Day 84,−0.2
same,"LCI concern for worldly achievement, LS mean difference Psilocybin 25 mg-Placebo",Day 84,−0.1
same,"LCI concern for worldly achievement, LS mean difference Psilocybin (25 mg-10 mg)",Day 84,0.1
same,"LCI concern social, LS mean difference Psilocybin 10 mg-Placebo",Day 84,0.1
same,"LCI concern social, LS mean difference Psilocybin 25 mg-Placebo",Day 84,0.1
same,"LCI concern social, LS mean difference Psilocybin (25 mg-10 mg)",Day 84,0.0
same,"LCI quest for meaning, LS mean difference Psilocybin 10 mg-Placebo",Day 84,0.4
same,"LCI quest for meaning, LS mean difference Psilocybin 25 mg-Placebo",Day 84,0.4
same,"LCI quest for meaning, LS mean difference Psilocybin (25 mg-10 mg)",Day 84,−0.0
same,"LCI religiousness, LS mean difference Psilocybin 10 mg-Placebo",Day 84,−0.0
same,"LCI religiousness, LS mean difference Psilocybin 25 mg-Placebo",Day 84,0.0
same,"LCI religiousness, LS mean difference Psilocybin (25 mg-10 mg)",Day 84,0.1
same,"LCI self-acceptance, LS mean difference Psilocybin 10 mg-Placebo",Day 84,0.5
same,"LCI self-acceptance, LS mean difference Psilocybin 25 mg-Placebo",Day 84,0.5
same,"LCI self-acceptance, LS mean difference Psilocybin (25 mg-10 mg)",Day 84,0.0
same,"LCI spirituality, LS mean difference Psilocybin 10 mg-Placebo",Day 84,0.4
same,"LCI spirituality, LS mean difference Psilocybin 25 mg-Placebo",Day 84,0.4
same,"LCI spirituality, LS mean difference Psilocybin (25 mg-10 mg)",Day 84,−0.0
same,"LCI-absolute change, LS mean difference Psilocybin 10 mg-Placebo",Day 84,0.4
same,"LCI-absolute change, LS mean difference Psilocybin 25 mg-Placebo",Day 84,0.4
same,"LCI-absolute change, LS mean difference Psilocybin (25 mg-10 mg)",Day 84,−0.0
same,"LCI appreciation for life, LS mean","Psilocybin 10 mg, Day 7",0.8
same,"LCI appreciation of death, LS mean","Psilocybin 10 mg, Day 7",0.2
same,"LCI concern for others, LS mean","Psilocybin 10 mg, Day 7",0.5
same,"LCI concern for worldly achievement, LS mean","Psilocybin 10 mg, Day 7",−0.2
same,"LCI concern social, LS mean","Psilocybin 10 mg, Day 7",0.2
same,"LCI quest for meaning, LS mean","Psilocybin 10 mg, Day 7",0.5
same,"LCI religiousness, LS mean","Psilocybin 10 mg, Day 7",−0.0
same,"LCI self-acceptance, LS mean","Psilocybin 10 mg, Day 7",0.8
same,"LCI spirituality, LS mean","Psilocybin 10 mg, Day 7",0.5
same,"LCI-absolute change, LS mean","Psilocybin 10 mg, Day 7",0.5
same,"LCI appreciation for life, LS mean","Psilocybin 10 mg, Day 84",0.8
same,"LCI appreciation of death, LS mean","Psilocybin 10 mg, Day 84",0.2
same,"LCI concern for others, LS mean","Psilocybin 10 mg, Day 84",0.5
same,"LCI concern for worldly achievement, LS mean","Psilocybin 10 mg, Day 84",−0.2
same,"LCI concern social, LS mean","Psilocybin 10 mg, Day 84",0.2
same,"LCI quest for meaning, LS mean","Psilocybin 10 mg, Day 84",0.5
same,"LCI religiousness, LS mean","Psilocybin 10 mg, Day 84",−0.0
same,"LCI self-acceptance, LS mean","Psilocybin 10 mg, Day 84",0.6
same,"LCI spirituality, LS mean","Psilocybin 10 mg, Day 84",0.5
same,"LCI-absolute change, LS mean","Psilocybin 10 mg, Day 84",0.5
same,"LCI appreciation for life, LS mean","Psilocybin 25 mg, Day 7",0.6
same,"LCI appreciation of death, LS mean","Psilocybin 25 mg, Day 7",0.1
same,"LCI concern for others, LS mean","Psilocybin 25 mg, Day 7",0.6
same,"LCI concern for worldly achievement, LS mean","Psilocybin 25 mg, Day 7",−0.2
same,"LCI concern social, LS mean","Psilocybin 25 mg, Day 7",0.2
same,"LCI quest for meaning, LS mean","Psilocybin 25 mg, Day 7",0.5
same,"LCI religiousness, LS mean","Psilocybin 25 mg, Day 7",0.0
same,"LCI self-acceptance, LS mean","Psilocybin 25 mg, Day 7",0.6
same,"LCI spirituality, LS mean","Psilocybin 25 mg, Day 7",0.4
same,"LCI-absolute change, LS mean","Psilocybin 25 mg, Day 7",0.4
same,"LCI appreciation for life, LS mean","Psilocybin 25 mg, Day 84",0.7
same,"LCI appreciation of death, LS mean","Psilocybin 25 mg, Day 84",0.3
same,"LCI concern for others, LS mean","Psilocybin 25 mg, Day 84",0.7
same,"LCI concern for worldly achievement, LS mean","Psilocybin 25 mg, Day 84",−0.1
same,"LCI concern social, LS mean","Psilocybin 25 mg, Day 84",0.2
same,"LCI quest for meaning, LS mean","Psilocybin 25 mg, Day 84",0.5
same,"LCI religiousness, LS mean","Psilocybin 25 mg, Day 84",0.0
same,"LCI self-acceptance, LS mean","Psilocybin 25 mg, Day 84",0.6
same,"LCI spirituality, LS mean","Psilocybin 25 mg, Day 84",0.5
same,"LCI-absolute change, LS mean","Psilocybin 25 mg, Day 84",0.5
